Source: ChEMBL document CHEMBL1201862, “PubChem BioAssay data set” (2004)
Calls of active or inactive are those of the source.

Tests used:
[1] = biological target: Glyceraldehyde-3-phosphate dehydrogenase (Homo sapiens, UniProt P04406)
[2] = biological target: T1, Alkaline phosphatase, tissue-nonspecific isozyme (Homo sapiens, UniProt P05186); assay: potency against alkaline phosphatase TNAP – biochemical, luminescent, dose response, SAR follow-up (AID 1056)
T1 sequence (P05186 whole entry): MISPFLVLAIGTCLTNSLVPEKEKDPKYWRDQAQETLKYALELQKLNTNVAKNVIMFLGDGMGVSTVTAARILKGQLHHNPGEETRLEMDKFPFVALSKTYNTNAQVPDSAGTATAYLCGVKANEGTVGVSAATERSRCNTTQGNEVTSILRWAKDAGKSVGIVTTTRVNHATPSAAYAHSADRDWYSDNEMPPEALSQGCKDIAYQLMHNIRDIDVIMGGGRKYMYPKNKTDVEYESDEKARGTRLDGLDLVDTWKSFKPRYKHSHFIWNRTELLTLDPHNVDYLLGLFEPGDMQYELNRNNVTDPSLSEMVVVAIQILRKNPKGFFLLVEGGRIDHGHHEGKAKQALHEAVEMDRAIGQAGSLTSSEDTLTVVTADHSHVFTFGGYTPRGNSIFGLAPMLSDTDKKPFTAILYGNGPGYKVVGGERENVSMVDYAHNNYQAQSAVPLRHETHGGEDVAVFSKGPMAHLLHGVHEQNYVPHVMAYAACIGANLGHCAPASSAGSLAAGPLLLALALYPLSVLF

[3] = biological target: T2, G-protein coupled receptor 55 (Homo sapiens, UniProt Q9Y2T6); assay: selective activators of receptor GPR55 – imaging, U2OS cells, beta-arrestin-GFP redistribution, primary screen (AID 1961); format: functional
Ion channel NompC = Ion channel NompC (Danio rerio, UniProt Q7T1G6); assay: Dose response cell-based high-throughput screening assay for agonists of the transient receptor potential channel N1 (TRPN1). [Related pubchem assays (depositor defined):AID1424, AID1448]; format: functional
Mucolipin-3 = biological target: T3, Mucolipin-3 (Homo sapiens, UniProt Q8TDD5); assay: Fluorescence counterscreen assay for […] agonists: dose response cell-based high-throughput screening assay to identify agonists of the transient receptor potential channel ML3 (TRPML3). [Related pubchem assays: 1424, 1448 ]; format: functional
T3 sequence (Q8TDD5 whole entry): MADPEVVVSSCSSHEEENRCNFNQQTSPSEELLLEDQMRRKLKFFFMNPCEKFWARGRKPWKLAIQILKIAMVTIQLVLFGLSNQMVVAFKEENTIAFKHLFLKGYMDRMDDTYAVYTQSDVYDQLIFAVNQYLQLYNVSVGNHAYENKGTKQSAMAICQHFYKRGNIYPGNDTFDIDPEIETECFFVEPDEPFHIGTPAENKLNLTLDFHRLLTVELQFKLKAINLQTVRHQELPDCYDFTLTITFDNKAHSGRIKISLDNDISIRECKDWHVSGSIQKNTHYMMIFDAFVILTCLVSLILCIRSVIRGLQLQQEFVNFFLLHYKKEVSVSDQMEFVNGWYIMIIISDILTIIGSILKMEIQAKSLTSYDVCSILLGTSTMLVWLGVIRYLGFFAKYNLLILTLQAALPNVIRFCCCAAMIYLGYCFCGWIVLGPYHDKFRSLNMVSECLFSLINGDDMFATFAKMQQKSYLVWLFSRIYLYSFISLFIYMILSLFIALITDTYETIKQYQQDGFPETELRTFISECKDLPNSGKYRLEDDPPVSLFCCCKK

[4] = biological target: T4, Kappa-type opioid receptor (Homo sapiens, UniProt P41145); assay: SAR analysis of small molecule antagonists of the kappa opioid receptor via a luminescent beta-arrestin assay - Set 3. [Related pubchem assays (depositor defined):AID1777, AID1778, AID1785, AID1786, AID1966, AID2133, AID2136, AID2285, AID2495]; format: functional
[5] = biological target: Delta-type opioid receptor (Homo sapiens, UniProt P41143); assay: SAR Analysis of Antagonists of the DOR Receptor using an Image-Based Assay - Set 3. [Related pubchem assays (depositor defined):AID1777, AID1785]; format: functional;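 also: U2OS cells expressing DOR1 and beta-arrestin GFP stimulated with 100 nM SNC80; imaging of GFP-tagged beta-arrestin moving into spots after receptor activation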
[6] = biological target: T4, Kappa-type opioid receptor; assay: SAR analysis of Antagonists of the Kappa Opioid Receptor (KOR) using an Image-Based Assay - Set 4. [Related pubchem assays (depositor defined):AID1777, AID1785]; format: functional
Mu-type opioid receptor = Mu-type opioid receptor (Homo sapiens, UniProt P35372); assay: SAR Analysis of Antagonists of the MOR Receptor using an Image-Based Assay - Set 3. [Related pubchem assays (depositor defined):AID1777, AID1785, AID1786, AID1966, AID2133, AID2136, AID2284, AID2285, AID2420]; format: functional
[7] = biological target: T2, G-protein coupled receptor 55; assay: SAR Analysis of Selective Antagonists of GPR55 using an Image-Based Assay - Set 3. [Related pubchem assays (depositor defined):AID2058, AID2079]; format: functional
[8] = biological target: G-protein coupled receptor 35 (Homo sapiens, UniProt Q9HC97); assay: SAR analysis of Antagonists of the GPR35 Receptor using an Image-Based Assay - Set 5. [Related pubchem assays (depositor defined):AID2058, AID2079]; format: functional
Trypanosoma cruzi = assay: anti-trypanosomal activity in host cells – cell-based, plate reader, dry powder, set 3, dose response (AID 493197); format: functional
[9] = NIH/3T3 cell viability loss – mouse embryonic fibroblasts, dry powder, set 2, cytotoxicity control, dose response (AID 493247); format: functional, cell-based; conditions: Fibroblast
[10] = biological target: T5, Dual specificity protein phosphatase 3 (Homo sapiens, UniProt P51452); assay: SAR VHR1 Fluorescent Assay for In Vitro dose response studies Set 2. [Related pubchem assays (depositor defined):AID1654, AID1661, AID1878]; format: functional
[11] = biological target: T5, Dual specificity protein phosphatase 3; assay: SAR VHR1 Fluorescent Assay for In Vitro dose response studies. [Related pubchem assays (depositor defined):AID1654, AID1661, AID1878, AID1992, AID2004, AID2070, AID2085]; format: functional
[12] = biological target: T5, Dual specificity protein phosphatase 3; assay: SAR VHR1 absorbance Assay for In Vitro dose response studies. [Related pubchem assays (depositor defined):AID1654, AID1661, AID1878, AID1992, AID2004]
[13] = biological target: T6, Dual specificity protein phosphatase 6 (Rattus norvegicus, UniProt Q64346); format: functional;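 also: confirmatory in vitro dose-response testing of MKP-3 inhibition; recombinant His-tagged MKP-3 made in E. coli BL21 with OMFP substrate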
T6 sequence (Q64346 whole entry): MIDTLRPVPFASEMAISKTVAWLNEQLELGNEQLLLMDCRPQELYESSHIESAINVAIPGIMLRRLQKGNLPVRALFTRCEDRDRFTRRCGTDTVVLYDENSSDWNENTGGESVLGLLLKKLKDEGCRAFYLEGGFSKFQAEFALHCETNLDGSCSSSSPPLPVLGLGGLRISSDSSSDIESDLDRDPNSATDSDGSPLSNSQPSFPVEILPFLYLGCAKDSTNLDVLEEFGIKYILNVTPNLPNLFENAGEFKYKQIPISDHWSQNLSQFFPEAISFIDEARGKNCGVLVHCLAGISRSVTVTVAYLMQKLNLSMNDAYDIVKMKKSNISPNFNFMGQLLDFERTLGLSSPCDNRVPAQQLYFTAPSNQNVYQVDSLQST

[14] = biological target: T7, Tyrosine-protein phosphatase non-receptor type 7 (Homo sapiens, UniProt P35236); assay: redox-active compounds inhibiting HePTP phosphatase – biochemical, fluorescence, mechanism study (AID 2068); format: functional
T7 sequence (P35236 whole entry): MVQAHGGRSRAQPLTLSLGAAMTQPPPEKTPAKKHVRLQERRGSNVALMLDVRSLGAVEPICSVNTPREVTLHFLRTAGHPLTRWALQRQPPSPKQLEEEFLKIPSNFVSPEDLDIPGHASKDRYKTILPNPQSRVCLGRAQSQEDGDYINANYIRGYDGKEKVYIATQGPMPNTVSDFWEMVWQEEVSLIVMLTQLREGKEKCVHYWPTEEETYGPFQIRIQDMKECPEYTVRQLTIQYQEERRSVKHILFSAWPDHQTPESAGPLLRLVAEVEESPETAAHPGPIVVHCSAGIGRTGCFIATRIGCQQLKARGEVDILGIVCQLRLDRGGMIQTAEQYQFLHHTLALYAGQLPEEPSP

[15] = biological target: DNA damage-inducible transcript 3 protein (Mus musculus, UniProt P35639); format: functional, Cricetulus griseus
[16] = Luminescence Cell-Based Dose Retest to Confirm Inhibitors of Cancer Stem Cells. [Related pubchem assays (depositor defined):AID2717, AID2721]; format: functional; conditions: Homo sapiens
[17] = Trypanosoma cruzi growth suppression in host cells – NIH3T3 host cells, beta-gal luminescence, confirmation (AID 2044); format: functional, cell-based;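 also: intracellular parasites grown in NIH/3T3 mouse fibroblasts as host cells; luminescent beta-galactosidase reporter signal from transgenic T. cruzi replicating inside host cells; inhibitors lower the luminescence signal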
INS1 = assay: INS-1E survival protection against cytokine death – cell-based, luminescence, retest, dose response (AID 449756); format: functional; conditions: Rattus norvegicus;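 also: cell death triggered by IL-1 beta plus TNF-alpha plus IFN-gamma mixture; protective hits raise ATP signal compared with cytokine alone wells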
[18] = NIH3T3 cell viability loss – ATP luminescence, mouse fibroblasts, counter-screen, dose response (AID 2010); format: functional, cell-based;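 also: cells exposed to compound for about 90 hours before reading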
Phospholipase A2 = Phospholipase A2 (Homo sapiens, UniProt P04054); format: functional;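 also: confirmatory dose-response counterscreen on phospholipase A2, testing hits that came from an ultra-high-throughput screen for ATG4B inhibitors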
Cysteine protease ATG4B = biological target: T8, Cysteine protease ATG4B (Homo sapiens, UniProt Q9Y4P1); format: functional;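 also: Fluorescence-based dose-response confirmation assay measuring inhibition of ATG4B activity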
T8 sequence (Q9Y4P1 whole entry): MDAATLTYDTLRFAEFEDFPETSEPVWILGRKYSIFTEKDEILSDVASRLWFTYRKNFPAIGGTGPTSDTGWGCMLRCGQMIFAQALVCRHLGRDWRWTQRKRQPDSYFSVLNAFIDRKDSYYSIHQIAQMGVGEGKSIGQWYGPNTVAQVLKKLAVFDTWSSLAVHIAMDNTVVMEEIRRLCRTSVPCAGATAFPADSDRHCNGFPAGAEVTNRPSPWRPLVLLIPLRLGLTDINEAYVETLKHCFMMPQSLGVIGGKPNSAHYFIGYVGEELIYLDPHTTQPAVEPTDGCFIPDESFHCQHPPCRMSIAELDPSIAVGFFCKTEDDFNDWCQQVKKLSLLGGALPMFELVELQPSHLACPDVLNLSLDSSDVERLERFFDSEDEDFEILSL

[19] = biological target: Induced myeloid leukemia cell differentiation protein Mcl-1 (Homo sapiens, UniProt Q07820); format: functional
[20] = biological target: 1-acylglycerol-3-phosphate O-acyltransferase ABHD5/Perilipin-5 (Homo sapiens, UniProt Q00G26+Q8WTS1); assay: Luminescence-based biochemical high throughput dose response assay for inhibitors of the interaction of the lipase co-activator protein, abhydrolase domain containing 5 (ABHD5) with perilipin-5 (MLDP; PLIN5) (2K validation set). [Related pubchem assays (depositor defined):AID493035, AID493241]
Perilipin-1/ABHD5 = Perilipin-1/ABHD5 (Homo sapiens, UniProt O60240+Q8WTS1); assay: Luminescence-based biochemical high throughput dose response assay for inhibitors of the interaction of the lipase co-activator protein, abhydrolase domain containing 5 (ABHD5) with perilipin-1 (PLIN1) (2K validation set). [Related pubchem assays (depositor defined):AID493027, AID493057]
Cytochrome P450 2C9 = Cytochrome P450 2C9 (Homo sapiens, UniProt P11712)
[21] = biological target: T9, Mannose-6-phosphate isomerase (Homo sapiens, UniProt P34949); assay: MPI inhibition at elevated mannose 6-phosphate – biochemical, fluorescence intensity, high mannose 6-phosphate, primary screen (AID 1220)
T9 sequence (P34949 whole entry): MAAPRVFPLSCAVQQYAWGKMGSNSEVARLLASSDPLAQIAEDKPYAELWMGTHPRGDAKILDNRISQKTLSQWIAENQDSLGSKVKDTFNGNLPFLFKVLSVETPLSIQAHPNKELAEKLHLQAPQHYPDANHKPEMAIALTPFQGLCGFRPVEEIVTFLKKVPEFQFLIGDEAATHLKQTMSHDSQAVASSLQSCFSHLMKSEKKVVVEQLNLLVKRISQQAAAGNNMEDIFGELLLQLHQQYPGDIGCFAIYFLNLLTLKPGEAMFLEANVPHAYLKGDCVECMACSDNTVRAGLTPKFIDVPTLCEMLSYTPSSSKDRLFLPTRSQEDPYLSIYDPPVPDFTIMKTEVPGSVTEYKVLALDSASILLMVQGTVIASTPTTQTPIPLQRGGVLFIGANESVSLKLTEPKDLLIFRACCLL

Cytochrome P450 2D6 = Cytochrome P450 2D6 (Homo sapiens, UniProt P10635);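 also: CYP2D6 member of a cytochrome P450 panel assay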
Sequence of Cytochrome P450 2D6 (P10635 whole entry): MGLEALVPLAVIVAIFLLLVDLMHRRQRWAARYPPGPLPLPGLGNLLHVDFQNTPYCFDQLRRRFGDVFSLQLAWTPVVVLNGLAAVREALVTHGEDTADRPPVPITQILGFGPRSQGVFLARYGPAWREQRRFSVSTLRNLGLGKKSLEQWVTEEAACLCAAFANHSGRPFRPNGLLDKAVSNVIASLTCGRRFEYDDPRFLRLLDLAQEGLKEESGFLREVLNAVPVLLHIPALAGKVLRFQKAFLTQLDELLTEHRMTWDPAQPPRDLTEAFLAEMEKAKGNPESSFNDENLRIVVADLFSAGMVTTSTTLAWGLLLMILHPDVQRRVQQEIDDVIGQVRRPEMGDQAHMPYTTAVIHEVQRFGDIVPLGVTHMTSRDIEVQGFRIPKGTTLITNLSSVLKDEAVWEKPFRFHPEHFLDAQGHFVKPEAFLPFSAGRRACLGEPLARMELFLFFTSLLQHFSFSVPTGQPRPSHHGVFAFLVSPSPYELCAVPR

T5 sequence (P51452 whole entry): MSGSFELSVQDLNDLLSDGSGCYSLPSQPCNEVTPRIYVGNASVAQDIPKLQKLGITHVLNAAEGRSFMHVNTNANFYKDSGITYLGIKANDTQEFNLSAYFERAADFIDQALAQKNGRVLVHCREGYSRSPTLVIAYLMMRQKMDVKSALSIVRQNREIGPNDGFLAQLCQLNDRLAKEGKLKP
T2 sequence (Q9Y2T6 whole entry): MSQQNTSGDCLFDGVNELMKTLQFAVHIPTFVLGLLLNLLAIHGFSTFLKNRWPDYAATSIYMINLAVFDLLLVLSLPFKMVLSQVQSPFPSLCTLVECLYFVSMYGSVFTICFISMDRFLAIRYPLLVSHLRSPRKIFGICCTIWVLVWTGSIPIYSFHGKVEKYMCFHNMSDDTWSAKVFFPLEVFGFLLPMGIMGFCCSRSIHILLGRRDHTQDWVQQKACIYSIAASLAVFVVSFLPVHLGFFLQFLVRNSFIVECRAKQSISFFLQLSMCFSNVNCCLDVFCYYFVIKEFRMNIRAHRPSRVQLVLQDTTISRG
T4 sequence (P41145 whole entry): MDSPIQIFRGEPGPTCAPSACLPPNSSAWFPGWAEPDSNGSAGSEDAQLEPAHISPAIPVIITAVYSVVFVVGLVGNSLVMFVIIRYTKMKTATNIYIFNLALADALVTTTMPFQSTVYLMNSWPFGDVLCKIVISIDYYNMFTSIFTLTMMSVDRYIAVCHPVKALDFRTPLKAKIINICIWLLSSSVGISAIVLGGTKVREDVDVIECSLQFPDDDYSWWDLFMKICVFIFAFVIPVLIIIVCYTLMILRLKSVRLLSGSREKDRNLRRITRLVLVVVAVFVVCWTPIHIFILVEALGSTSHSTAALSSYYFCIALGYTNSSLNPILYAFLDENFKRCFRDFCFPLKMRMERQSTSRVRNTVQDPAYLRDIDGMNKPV
Sequence of Delta-type opioid receptor (P41143 whole entry): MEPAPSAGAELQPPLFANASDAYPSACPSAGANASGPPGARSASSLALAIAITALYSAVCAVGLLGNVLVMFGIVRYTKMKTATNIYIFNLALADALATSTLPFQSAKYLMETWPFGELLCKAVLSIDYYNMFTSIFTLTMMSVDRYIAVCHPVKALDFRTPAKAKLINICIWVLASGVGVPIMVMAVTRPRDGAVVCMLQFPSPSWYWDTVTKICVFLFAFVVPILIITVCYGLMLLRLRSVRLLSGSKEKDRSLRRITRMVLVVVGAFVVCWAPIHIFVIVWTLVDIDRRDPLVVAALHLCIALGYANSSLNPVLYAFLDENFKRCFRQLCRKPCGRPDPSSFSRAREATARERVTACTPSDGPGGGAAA
Sequence of Phospholipase A2 (P04054 whole entry): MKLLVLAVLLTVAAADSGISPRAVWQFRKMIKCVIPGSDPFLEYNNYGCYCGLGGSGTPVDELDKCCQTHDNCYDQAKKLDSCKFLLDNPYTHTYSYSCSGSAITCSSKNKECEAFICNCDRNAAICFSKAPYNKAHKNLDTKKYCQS
Sequence of Mu-type opioid receptor (P35372 whole entry): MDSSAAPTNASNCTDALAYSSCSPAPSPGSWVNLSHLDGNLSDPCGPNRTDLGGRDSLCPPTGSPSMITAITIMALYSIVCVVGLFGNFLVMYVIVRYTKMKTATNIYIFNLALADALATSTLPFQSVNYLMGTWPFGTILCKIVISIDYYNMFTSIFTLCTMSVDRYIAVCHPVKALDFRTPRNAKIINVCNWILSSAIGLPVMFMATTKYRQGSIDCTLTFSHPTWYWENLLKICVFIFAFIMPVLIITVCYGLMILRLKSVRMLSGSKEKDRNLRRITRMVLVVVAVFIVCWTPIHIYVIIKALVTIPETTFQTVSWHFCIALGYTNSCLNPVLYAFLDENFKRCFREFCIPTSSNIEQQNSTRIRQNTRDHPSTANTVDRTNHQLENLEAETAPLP
Sequence of Cytochrome P450 2C9 (P11712 whole entry): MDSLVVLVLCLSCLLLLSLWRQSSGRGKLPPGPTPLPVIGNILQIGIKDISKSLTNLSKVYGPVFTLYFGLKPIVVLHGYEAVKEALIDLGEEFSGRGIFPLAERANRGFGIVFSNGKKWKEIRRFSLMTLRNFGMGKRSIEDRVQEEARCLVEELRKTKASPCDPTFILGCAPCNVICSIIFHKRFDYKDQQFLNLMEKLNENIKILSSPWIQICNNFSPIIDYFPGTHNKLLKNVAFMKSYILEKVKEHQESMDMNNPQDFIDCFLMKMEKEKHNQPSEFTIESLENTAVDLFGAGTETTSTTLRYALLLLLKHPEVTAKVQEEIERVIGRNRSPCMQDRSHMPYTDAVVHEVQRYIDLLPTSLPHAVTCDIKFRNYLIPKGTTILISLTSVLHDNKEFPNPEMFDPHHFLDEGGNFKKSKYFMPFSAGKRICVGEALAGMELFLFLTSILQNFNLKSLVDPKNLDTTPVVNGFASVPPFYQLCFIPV
Sequence of G-protein coupled receptor 35 (Q9HC97 whole entry): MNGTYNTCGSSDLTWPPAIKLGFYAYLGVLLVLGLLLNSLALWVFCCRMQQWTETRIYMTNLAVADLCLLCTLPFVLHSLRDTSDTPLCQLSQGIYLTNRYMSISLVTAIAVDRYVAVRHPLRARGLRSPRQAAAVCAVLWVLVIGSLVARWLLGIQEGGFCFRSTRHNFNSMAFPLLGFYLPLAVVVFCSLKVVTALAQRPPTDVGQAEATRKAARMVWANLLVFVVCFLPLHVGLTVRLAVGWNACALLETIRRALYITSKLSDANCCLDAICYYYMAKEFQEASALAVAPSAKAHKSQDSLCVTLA
Sequence of Ion channel NompC (Q7T1G6 whole entry): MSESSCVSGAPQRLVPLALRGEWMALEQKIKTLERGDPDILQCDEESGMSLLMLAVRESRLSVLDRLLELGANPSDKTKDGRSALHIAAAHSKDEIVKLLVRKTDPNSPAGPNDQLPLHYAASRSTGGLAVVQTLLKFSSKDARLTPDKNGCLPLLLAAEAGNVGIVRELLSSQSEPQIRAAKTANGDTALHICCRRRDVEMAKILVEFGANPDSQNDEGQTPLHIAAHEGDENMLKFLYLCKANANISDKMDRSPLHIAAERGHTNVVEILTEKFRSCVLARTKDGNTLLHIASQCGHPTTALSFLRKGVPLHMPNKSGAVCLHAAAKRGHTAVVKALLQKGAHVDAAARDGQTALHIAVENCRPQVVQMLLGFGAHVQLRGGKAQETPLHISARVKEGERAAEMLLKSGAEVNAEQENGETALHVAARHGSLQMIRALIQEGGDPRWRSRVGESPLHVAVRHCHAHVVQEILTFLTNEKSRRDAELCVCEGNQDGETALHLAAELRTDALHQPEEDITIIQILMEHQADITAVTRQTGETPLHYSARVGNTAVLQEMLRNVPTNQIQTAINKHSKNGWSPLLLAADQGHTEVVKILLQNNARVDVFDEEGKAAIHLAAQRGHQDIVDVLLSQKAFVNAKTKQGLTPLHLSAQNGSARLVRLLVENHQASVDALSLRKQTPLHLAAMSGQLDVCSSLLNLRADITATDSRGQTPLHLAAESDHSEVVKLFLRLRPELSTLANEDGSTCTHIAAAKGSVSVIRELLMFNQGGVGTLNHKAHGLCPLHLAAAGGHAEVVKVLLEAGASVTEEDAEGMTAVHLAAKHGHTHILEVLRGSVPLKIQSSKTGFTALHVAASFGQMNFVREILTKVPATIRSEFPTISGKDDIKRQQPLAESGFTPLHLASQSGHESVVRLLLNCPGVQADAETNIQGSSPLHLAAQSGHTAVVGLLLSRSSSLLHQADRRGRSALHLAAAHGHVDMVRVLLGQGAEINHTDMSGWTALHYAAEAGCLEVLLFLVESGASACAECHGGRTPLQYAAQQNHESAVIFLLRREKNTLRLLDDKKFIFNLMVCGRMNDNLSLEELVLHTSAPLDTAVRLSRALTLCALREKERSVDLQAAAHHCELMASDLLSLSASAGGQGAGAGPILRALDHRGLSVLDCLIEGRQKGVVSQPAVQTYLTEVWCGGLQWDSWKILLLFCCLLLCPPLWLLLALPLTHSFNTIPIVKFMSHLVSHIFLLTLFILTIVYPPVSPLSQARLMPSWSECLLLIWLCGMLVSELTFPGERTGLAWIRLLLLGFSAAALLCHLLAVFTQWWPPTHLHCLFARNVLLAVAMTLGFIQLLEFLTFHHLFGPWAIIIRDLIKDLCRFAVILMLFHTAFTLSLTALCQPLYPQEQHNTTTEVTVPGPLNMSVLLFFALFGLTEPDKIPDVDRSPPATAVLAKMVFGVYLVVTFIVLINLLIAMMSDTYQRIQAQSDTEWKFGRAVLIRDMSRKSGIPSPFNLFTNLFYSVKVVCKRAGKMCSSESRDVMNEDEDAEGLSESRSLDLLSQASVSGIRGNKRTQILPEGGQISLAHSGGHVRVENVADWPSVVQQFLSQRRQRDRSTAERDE
Sequence of DNA damage-inducible transcript 3 protein (P35639 whole entry): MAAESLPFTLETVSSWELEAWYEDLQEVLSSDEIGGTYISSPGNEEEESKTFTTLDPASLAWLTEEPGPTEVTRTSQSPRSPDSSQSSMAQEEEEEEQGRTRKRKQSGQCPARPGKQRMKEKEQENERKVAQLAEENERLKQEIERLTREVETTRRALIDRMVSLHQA

O=S(=O)(Nc1cnc2ccccc2c1)c1ccc(F)cc1
IC50 [1]: > 100 µM (not active) | IC50 [2]: > 100 µM (inactive)

COc1ccc(-c2cc(C(F)(F)F)n3nc(C(=O)NCc4ccco4)cc3n2)cc1
EC50 [3]: > 32 µM (inactive)

CCOC(=O)C1CN(S(=O)(=O)c2ccc(C)cc2)CCN1S(=O)(=O)c1ccc(C)cc1 (stereo unspecified)
EC50 (Ion channel NompC): > 29.9 µM (inactive) | EC50 (Mucolipin-3): > 29.9 µM (not active)

CCN(CCNC(=O)c1ccc(CNS(=O)(=O)c2ccccc2)cc1)Cc1ccccc1
IC50 [4]: 4.86 µM (active) | IC50 [5]: > 32 µM (inactive) | IC50 [6]: 12.1 µM (inactive) | IC50 (Mu-type opioid receptor): 2.03 µM (active)

COC(=O)c1cnn(-c2ccccc2)c1/C=N/NC(N)=S
IC50 [7]: > 32 µM (inactive) | IC50 [8]: > 32 µM (inactive)

CCCNC(=O)C1(C)CCCN(Cc2ccc(Oc3ccccc3)cc2)C1 (stereo unspecified)
AC50 (Trypanosoma cruzi): 8.72 µM (active) | AC50 [9]: 22.9 µM (active)

CNS(=O)(=O)c1cccc(C(=O)NC2CCSc3ccccc32)c1 (stereo unspecified)
IC50 [10]: > 100 µM (inactive) | IC50 [11]: > 100 µM (inactive) | IC50 [12]: > 100 µM (inactive) | IC50 [13]: > 100 µM (inactive) | IC50 [14]: > 100 µM (inactive)

Cc1ccccc1/C=N/Nc1ccnc2cc(Cl)ccc12
Absolute IC50 (CHOP) [15]: 10 µM | AC50 [16]: 3.62 µM (active) | EC50 [17]: 1.07 µM (active) | AC50 (INS1): 5.39 µM (active) | EC50 [18]: > 60 µM (not active) | IC50 (Phospholipase A2): 11.4 µM (active) | IC50 (Cysteine protease ATG4B): 14.7 µM (active) | IC50 [19]: 5.13 µM (active)

Nc1cc(-c2ccncc2)c[nH]c1=O [INAMRINONE]
IC50 [20]: 78.8 µM (inactive) | IC50 (Perilipin-1/ABHD5): > 79.5 µM (inactive) | AC50 (Cytochrome P450 2C9): 12.6 µM (inconclusive) | IC50 [21]: > 50 µM (not active) | AC50 (Cytochrome P450 2D6): 12.6 µM (inconclusive)
